US20220033407A1, “N-(pyridin-2-ylsulfonyl)cyclopropanecarboxamide Derivatives and their Use in the Treatment of Disease” (NOVARTIS AG, priority 2018, published 2022)

Key:
delF508-CFTR-HRP = target: T1, delF508-CFTR-HRP (Homo sapiens, UniProt P13569, DEL508-508); assay: Measurement of delF508-CFTR-HRP surface expression in CFBE41o- cells (HRP luminescence); assay type: cell-based; conditions: for Emax: CFBE41o-, read-out: DelF508-CFTR-HRP Amax %; for EC50: mean of at least two replicates;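 as to DelF508-CFTR-HRP Amax %: percent efficacy relative to a reference CFTR corrector compound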
T1 construct: expressed in transfected cells
In short: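 Stably transfected CFBE41o- cells carrying HRP in the fourth extracellular loop of delF508-CFTR, induced with 500 ng/mL doxycycline for 48 h, then compound-treated 24 h at 37° C (10-point, 3-fold, top 10 μM). Surface HRP detected by luminescent substrate; EC50 from logistic fit, triplicates, normalized to lowest-concentration median.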

delF508-CFTR = target: T2, delF508-CFTR (Homo sapiens, UniProt P13569, DEL508-508); assay: delF508-CFTR functional activity in primary human bronchial epithelial cells (HBECs), Multi-Transepithelial Clamp Circuit (MTECC-24) assay, equivalent short circuit current; assay type: cell-based; conditions: primary CF HBECs; for MTECC24 CFHBEC-Amax %: relative to reference combination 2 μM 3-(6-(1-(2,2-difluorobenzo[d][1,3]dioxol-5-yl)cyclopropane-1-carboxamido)-3-methylpyridin-2-yl)benzoic acid (24 h) + 0.5 μM N-(2,4-di-tert-butyl-5-hydroxyphenyl)-4-oxo-1,4-dihydroquinoline-3-carboxamide; for EC50: test compound added 24 h before assay, potentiator (S)-3-amino-6-methoxy-N-(3,3,3-trifluoro-2-hydroxy-2-methylpropyl)-5-(trifluoromethyl)picolinamide present at assay, mean of at least two replicates, read-out: MTECC24 CFHBEC-EC50
T2 construct: functional activity of the CFTR channel (Chloride ion transport) in patient derived primary human bronchial epithelial cells; host or cells: patient-derived primary human bronchial epithelial cells (HBECs), delF508-CFTR
In short: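 Patient-derived delF508 HBECs, grown at air-liquid interface about two weeks, were corrected with compound basolaterally for 24 h. Compound was then re-added apically and basolaterally in HEPES pH7.4 assay medium, with sequential modulators including forskolin and the picolinamide potentiator. Ieq was recorded, normalised to 0.1% DMSO wells, and EC50 fitted from 10-point curves.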

T2 sequence (P13569 with tags, fused parts or gaps DEL508-508): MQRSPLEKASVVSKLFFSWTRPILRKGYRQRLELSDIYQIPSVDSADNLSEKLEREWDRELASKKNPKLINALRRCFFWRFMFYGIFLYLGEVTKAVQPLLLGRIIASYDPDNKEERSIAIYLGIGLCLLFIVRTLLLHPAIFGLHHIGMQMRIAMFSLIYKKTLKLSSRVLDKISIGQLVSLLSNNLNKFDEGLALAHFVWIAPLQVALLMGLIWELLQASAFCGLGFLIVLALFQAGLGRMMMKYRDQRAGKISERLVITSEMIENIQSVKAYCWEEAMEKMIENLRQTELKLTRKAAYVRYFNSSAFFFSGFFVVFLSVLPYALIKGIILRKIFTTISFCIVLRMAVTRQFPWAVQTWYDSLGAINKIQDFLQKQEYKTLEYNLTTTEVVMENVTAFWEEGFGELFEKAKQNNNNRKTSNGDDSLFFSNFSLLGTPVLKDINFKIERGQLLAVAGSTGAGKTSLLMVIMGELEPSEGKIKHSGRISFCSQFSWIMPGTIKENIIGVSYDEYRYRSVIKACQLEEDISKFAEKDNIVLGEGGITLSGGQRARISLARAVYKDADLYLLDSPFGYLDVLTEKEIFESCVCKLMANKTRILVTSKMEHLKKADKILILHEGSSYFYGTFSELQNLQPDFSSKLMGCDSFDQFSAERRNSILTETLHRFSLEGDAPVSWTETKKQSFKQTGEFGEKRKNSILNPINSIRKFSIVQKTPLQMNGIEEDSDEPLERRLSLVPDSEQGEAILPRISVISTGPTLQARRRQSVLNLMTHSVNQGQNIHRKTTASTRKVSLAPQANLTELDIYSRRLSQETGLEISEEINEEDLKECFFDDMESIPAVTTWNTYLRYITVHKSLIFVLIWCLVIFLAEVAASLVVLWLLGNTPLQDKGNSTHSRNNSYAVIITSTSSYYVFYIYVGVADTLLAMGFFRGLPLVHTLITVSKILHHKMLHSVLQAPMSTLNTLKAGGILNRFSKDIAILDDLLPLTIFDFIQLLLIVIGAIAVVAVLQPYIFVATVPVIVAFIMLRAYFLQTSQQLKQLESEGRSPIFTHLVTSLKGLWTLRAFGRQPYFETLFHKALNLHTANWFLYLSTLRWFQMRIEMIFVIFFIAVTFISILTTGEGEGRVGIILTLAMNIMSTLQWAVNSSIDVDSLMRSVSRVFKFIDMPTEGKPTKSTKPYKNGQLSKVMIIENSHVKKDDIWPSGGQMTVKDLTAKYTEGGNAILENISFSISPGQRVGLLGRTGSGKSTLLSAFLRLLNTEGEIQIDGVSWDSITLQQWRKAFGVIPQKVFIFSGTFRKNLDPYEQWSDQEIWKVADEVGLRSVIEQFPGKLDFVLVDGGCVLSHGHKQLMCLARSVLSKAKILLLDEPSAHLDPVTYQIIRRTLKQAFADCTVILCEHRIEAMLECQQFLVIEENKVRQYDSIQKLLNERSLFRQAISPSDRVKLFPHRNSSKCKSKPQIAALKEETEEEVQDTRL
T1 sequence (P13569 with tags, fused parts or gaps DEL508-508): as above

| SMILES | Emax (delF508-CFTR-HRP) [%] | EC50 (delF508-CFTR-HRP) [nM] | MTECC24 CFHBEC-Amax % (delF508-CFTR) [%] | EC50 (delF508-CFTR) [nM] | DelF508-CFTR-HRP Amax % (delF508-CFTR-HRP) [%] |
| --- | --- | --- | --- | --- | --- |
| Cc1ccc(C2CCCCC2)c(OC2(C(=O)NS(=O)(=O)c3cccc(N4CCC(C)(NC(=O)NC5CC5)CC4)n3)CC2)c1 [Example 2-11, 1-(2-Cyclohexyl-5-methylphenoxy)-N-((6-(4-(3-cyclopropylureido)-4-methylpiperidin-1-yl)pyridin-2-yl)sulfonyl)cyclopropanecarboxamide] | 286 | 2590 | 77 | 20 |  |
| Cc1ccc(C2CCC(C)(C)OC2)c(OC2(C(=O)NS(=O)(=O)c3cccc(N4CCC(O)(c5ccc(Cl)cc5)CC4)n3)CC2)c1 (single isomer, unassigned) [Example 11-1-2, N-((6-(4-(4-chlorophenyl)-4-hydroxypiperidin-1-yl)pyridin-2-yl)sulfonyl)-1-(2-(6,6-dimethyltetrahydro-2H-pyran-3-yl)-5-methylphenoxy)cyclopropane-1-carboxamide] |  | 900 | 191.0 | 176 | 819.2 |
| Cc1ccc(C2(C(F)(F)F)CC2)c(OC2(C(=O)NS(=O)(=O)c3cccc(N)n3)CCCC2)c1 [Example 1-8, N-((6-Aminopyridin-2-yl)sulfonyl)-1-(5-methyl-2-(1-(trifluoromethyl)cyclopropyl)phenoxy)cyclopentane-1-carboxamide] | 165 | 2380 | 46 | 6 |  |
| Cc1ccc(N2CCC3(CC2)CC3)c(OC2(C(=O)NS(=O)(=O)c3cccc(N4CC[C@H](O)C4)n3)CC2)c1 [Example 9-11, (S)—N-((6-(3-Hydroxypyrrolidin-1-yl)pyridin-2-yl)sulfonyl)-1-(5-methyl-2-(6-azaspiro[2.5]octan-6-yl)phenoxy)cyclopropanecarboxamide] | 580 | 1640 | 133.4 | 396 |  |
| Cc1ccc(C2CC=CCC2)c(OC2(C(=O)NS(=O)(=O)c3cccc(N4CC(C)(O)C4)n3)CC2)c1 (centres unmarked) [Example 4-22, N-((6-(3-hydroxy-3-methylazetidin-1-yl)pyridin-2-yl)sulfonyl)-1-((4-methyl-1′,2′,3′,6′-tetrahydro-[1,1′-biphenyl]-2-yl)oxy)cyclopropanecarboxamide] | 453 | 3670 | 62 | 12 |  |
| C[C@@H]1CN(c2cccc(S(=O)(=O)NC(=O)C3(Oc4cc(Cl)ccc4C4CCC(C)(C)CC4)CC3)n2)CCO1 [Example 4-13, (R)-1-(5-Chloro-2-(4,4-dimethylcyclohexyl)phenoxy)-N-((6-(2-methylmorpholino)pyridin-2-yl)sulfonyl)cyclopropane-1-carboxamide] | 591 | 1410 | 83 | 50 |  |
| Cc1ccc(C2CCCCC2)c(OC2(C(=O)NS(=O)(=O)c3cccc(NC[C@H](C)O)n3)CC2)c1 [Example 2-47, (S)-1-(2-Cyclonexyl-5-methylphenoxy)-N-((6-((2-hydroxypropyl)amino)pyridin-2-yl)sulfonyl)cyclopropane-1-carboxamide] | 747 | 2420 | 97 | 6 |  |
| Cc1ccc(C2CCCCC2)c(OC2(C(=O)NS(=O)(=O)c3cccc(N4CCNC(=O)CC4)n3)CC2)c1 [Example 2-40, 1-(2-Cyclohexyl-5-methylphenoxy)-N-((6-(5-oxo-1,4-diazepan-1-yl)pyridin-2-yl)sulfonyl)cyclopropanecarboxamide] | 123 | 3790 | 76 | 121 |  |
| O=C(NS(=O)(=O)c1cccc(N2CC[C@H](O)C2)n1)C1(Oc2cc(Cl)ccc2N2CCC3(CCCCC3)CC2)CC1 [Example 9-14, (S)-1-(5-Chloro-2-(3-azaspiro[5.5]undecan-3-yl)phenoxy)-N-((6-(3-hydroxypyrrolidin-1-yl)pyridin-2-yl)sulfonyl)cyclopropanecarboxamide] | 279 | 700 | 170.7 | 454 |  |
| O=C(NS(=O)(=O)c1cccc(N2CC[C@H](O)C2)n1)C1(Oc2cc(Cl)ccc2N2CCC3(CCC3)CC2)CC1 [Example 9-12, (S)-1-(5-Chloro-2-(7-azaspiro[3.5]nonan-7-yl)phenoxy)-N-((6-(3-hydroxypyrrolidin-1-yl)pyridin-2-yl)sulfonyl)cyclopropanecarboxamide] | 579 | 1330 | 160.7 | 776 |  |
| COc1ccc(C2CCC(F)(F)CC2)c(OC2(C(=O)NS(=O)(=O)c3cccc(N4CCC[C@H](CO)C4)n3)CC2)c1 [Example 3-7, (S)-1-(2-(4,4-Difluorocyclohexyl)-5-methoxyphenoxy)-N-((6-(3-(hydroxymethyl)piperidin-1-yl)pyridin-2-yl)sulfonyl)cyclopropane-1-carboxamide] | 258 | 3410 | 51 | 35 |  |
| Cc1ccc(OC2CCCCCC2)c(OC2(C(=O)NS(=O)(=O)c3cccc(N4CC[C@H](O)C4)n3)CC2)c1 [Example 6-6, (S)-1-(2-(cycloheptyloxy)-5-methylphenoxy)-N-((6-(3-hydroxypyrrolidin-1-yl)pyridin-2-yl)sulfonyl)cyclopropanecarboxamide] | 462 | 2070 | 110.6 | 668 |  |
| Cc1ccc(C2CCCCC2)c(OC2(C(=O)NS(=O)(=O)c3cccc(N4CC(C)(O)C4)n3)CC2)c1 [Example 2-16, 1-(2-Cyclohexyl-5-methylphenoxy)-N-((6-(3-hydroxy-3-methylazetidin-1-yl)pyridin-2-yl)sulfonyl)cyclopropanecarboxamide] | 642 | 2520 | 101 | 12 |  |
| Cc1ccc(C2CCCCC2)c(OC2(C(=O)NS(=O)(=O)c3cccc(N4CCC(N)CC4)n3)CC2)c1 [Example 2-41, N-((6-(4-Aminopiperidin-1-yl)pyridin-2-yl)sulfonyl)-1-(2-cyclohexyl-5-methylphenoxy)cyclopropanecarboxamide] | 142 | 2960 | 54 | 654 |  |
| O=C(NS(=O)(=O)c1cccc(N2CC[C@H](O)C2)n1)C1(Oc2cc(Cl)ccc2N2CC3(CCC3)C2)CC1 [Example 9-20, (S)-1-(5-Chloro-2-(2-azaspiro[3.3]heptan-2-yl)phenoxy)-N-((6-(3-hydroxypyrrolidin-1-yl)pyridin-2-yl)sulfonyl)cyclopropanecarboxamide] | 729 | 2910 | 98.5 | 832 |  |
| Cc1ccc(C2CCCCC2)c(OC2(C(=O)NS(=O)(=O)c3cccc(N4CCO[C@H](C)C4)n3)CC2)c1 [Example 2-53, (R)-1-(2-Cyclohexyl-5-methylphenoxy)-N-((6-(2-methylmorpholino)pyridin-2-yl)sulfonyl)cyclopropane-1-carboxamide] | 416 | 1590 | 82 | 2 |  |
| COC(=O)C1(C)CCN(c2cccc(S(=O)(=O)NC(=O)C3(Oc4cc(C)ccc4C4CCCCC4)CC3)n2)CC1 [Example 2-3, Methyl 1-(6-(N-(1-(2-cyclohexyl-5-methylphenoxy)cyclopropanecarbonyl)sulfamoyl)pyridin-2-yl)-4-methylpiperidine-4-carboxylate] | 337 | 460 | 79 | 5 |  |
| Cc1ccc(CC(C)C)c(OC2(C(=O)NS(=O)(=O)c3cccc(N4CCC[C@@H](CO)C4)n3)CC2)c1 [Example 4-8, (R)-N-((6-(3-(hydroxymethyl)piperidin-1-yl)pyridin-2-yl)sulfonyl)-1-(2-isobutyl-5-methylphenoxy)cyclopropane-1-carboxamide] | 388 | 2200 | 80 | 11 |  |
| Cc1ccc(C2CCCCC2)c(OC2(C(=O)NS(=O)(=O)c3cccc(N4CCC(N)(CF)CC4)n3)CC2)c1 [Example 2-19, N-((6-(4-Amino-4-(fluoromethyl)piperidin-1-yl)pyridin-2-yl)sulfonyl)-1-(2-cyclohexyl-5-methylphenoxy)cyclopropanecarboxamide] | 326 | 2610 | 120 | 61 |  |
| O=C(NS(=O)(=O)c1cccc(N2CCC(O)(C(F)(F)F)CC2)n1)C1(Oc2cc(Cl)ccc2C2CC3(CCC3)C2)CC1 [Example 7-1, 1-(5-Chloro-2-(spiro[3.3]heptan-2-yl)phenoxy)-N-((6-(4-hydroxy-4-(trifluoromethyl)piperidin-1-yl)pyridin-2-yl)sulfonyl)cyclopropanecarboxamide] | 445 | 490 | 203.8 | 132 |  |
